Reference: EP2138586A1, “Process for the regioselective preparation of disaccharides or oligosaccharides” (Cognis IP Management GmbH, priority 2008, dated 2009)

Assay: log P of the solvents used in the transglycosylation (Table 1)
Format: physicochemical
Settings: property of the dialkyl amide solvent; method not described

| logP | Compound |
| --- | --- |
| -0.69 | CC(O)C(=O)N(C)C (centres unmarked) [LDMA, lactic acid dimethyl amide] |
| 1.42 | CCCCCCCC(=O)N(C)C [CDMA, caprylic dimethyl amide] |
